According to US10183015B2, “Heterocyclic compounds and methods of use” (Medivation Technologies LLC, priority 2015, dated 2019):
pIC50: −log10 of the molar value. Several values for one entry are separate records, joined by “and”; a condition that tells them apart may be missing. Equal values may be shown once.

What was measured:
HepG2 cells = experiment: HepG2 cell viability under serum-free conditions (MTS); format: cell-based; conditions: Homo sapiens
Procedure: Cancer cells such as HepG2 cells depend on SREBP activation and de novo lipogenesis to survive, particularly in low serum or serum-free conditions. Using this model, compounds were screened over 24 hours for the ability to block cleavage of SREBP to its active form and over 72 hours for an effect on cell viability under serum-free conditions.
For viability measurements, HepG2 cells were seeded at 5,000 cells per well in 96-well plates in DMEM supplemented with 10% FBS. After 1 day in culture, cells were treated with compounds (20 μM & 5 μM) for 3 days in DMEM without FBS. Viability was measured by MTS […]. […]

[1] = tested on: 60% high fat Paigen diet induced NASH mouse model; experiment: Short-term (21 day) Paigen-diet NASH mouse model: plasma ALT, AST, triglycerides, cholesterol, free fatty acids; format: in vivo
Procedure: To investigate whether Compound #37 prevents the development of pathology associated with NASH and steatosis in an acute exploratory disease model, a study was conducted using a diet-induced acute liver steatosis model in mice. As described below, in this study, C57BL/6J mice were initiated on the Paigen diet and simultaneously treated with Compound #37 (5, 20, and 40 mg/kg/day) or vehicle control (20% HPβCD 10 mL/kg/day) by oral gavage for 21 days.
After acclimation, 8-week old male C57Bl/6J mice (Charles River) weighing about 25 g were randomized in 4 groups according their body weight and treated once daily around noon by oral gavage with vehicle, or Compound #37 at various for 21 days as follows: Group 1: vehicle-20% (2-hydroxypropyl)-β-cyclodextrin (HP-β-CD) (n=10); Group 2: Compound #37, 5 mg/kg (n=10) Group 3: Compound #37, 20 mg/kg (n=10) Group 4: Compound #37, 40 mg/kg (n=10). During the treatment period, body weight and food intake (measured over 24h) were measured 3 times per week and once a week, respectively. During the acclimation, all mice were fed a standard diet (Special Diets Services RM1 (E), product no. 801492) and tap water ad libitum. After the acclimation period, mice were fed until the end of the experiment with a 60% high fat Paigen diet (60 kcal % fat, 1.25% cholesterol, and 0.5% cholate; D11061901, Research Diet) and tap water ad libitum.
One hour after the last dosing (noon), blood was collected by retro-orbital bleeding (maximal volume on EDTA) under isoflurane anesthesia to measure plasma triglycerides, total cholesterol, non-esterified fatty acid, ALT and AST. Mice were then sacrificed by cervical dislocation, and livers were harvested and weighed. Liver samples from the same lobe were dissected, frozen, and analyzed as described below.
Data Analysis. Values are presented as mean±standard error of the mean (sem). To assess the compound effect, treated groups were compared to vehicle with a 1-way ANOVA+Dunnett's post-test. […] For RT-qPCR and score Kruskall-Wallis test was performed with Dunns post-test. For body weight evolution the treated groups were compared to vehicle with a 2-way ANOVA with Bonferroni post-test. For each test, a p<0.05 was considered significant.

HMGCoA = experiment: DIN mouse model: hepatic HMGCOA gene expression; format: in vivo; conditions: liver, 20 mg/kg group
Procedure: Gene expression analysis. Hepatic expression levels of genes involved in lipid metabolism (FAS, SREBP1, ACC1, SCD1), cholesterol metabolism (HMG-CoAR, LDLR), SREBP proteolysis (SCAP, INSIG1), ER stress (PERK), oxidative stress (NRF2), inflammation (MCP-1), and fibrosis (collagen 1α1) were quantified by RTqPCR. Expression level was normalized to 18S gene expression and relative expression to vehicle group was calculated with the […] method.
Male C57Bl/6J mice (8 weeks old) were housed in enriched ventilated cages (31×12.5×12.7 cm) throughout the experimental phase. Animals' cages litters were changed at least once a week. Animal were housed 5 per cage on inverted 12-hour light cycle (at 09:00 am lights off), 22±2° C. and 55±10% relative humidity. The acclimation period was 20 days. During the acclimation period, all mice were fed a standard diet (RM1 (E) 801492, SDS) and tap water ad libitum. After the acclimation period, mice were fed with the DIN diet (60% fat, cholesterol enriched) and fructose-enriched tap water ad libitum until the end of the experiment.
At 6 weeks of diet, mice were 4-hour fasted (09:00 am to 1:00 pm) and blood (150 μl/EDTA) was collected at 01:00 pm by retro-orbital bleeding under isoflurane anesthesia. Mice were then allocated in 2 homogenous groups (n=12/group) according to their plasma levels of ALT (average levels: 685U/L), AST (average levels: 627U/L) and HOMA-IR index (average value: 4.7), into 2 homogenous groups (see values at day 0 in Tables 15A and 15B ALT/AST and Tables 16A and 16B for HOMA-IR). Mice were then treated once daily by oral gavage with vehicle (Group 1) or Compound #37 at 20 mg/kg (Group 2) for 70 days.
Hepatic expression levels of genes involved in lipid (FAS, SREBP1, ACC1, SCD1), cholesterol metabolism (HMG-CoAR, LDLR), in SREBP proteolysis (SCAP, INSIG1), in ER stress (PERK), oxidative stress (NRF2), and inflammation (MCP-1) were not changed. However, expression of collagen 1α1, involved in liver fibrosis, was reduced by 66% in mice treated with Compound #37 (p<0.05 vs. vehicle).

[2] = 5 mg/kg p.o. daily, 21 days of diet and treatment, group mean
[3] = 5 mg/kg p.o. daily, 21 days of diet and treatment, individual animals
[4] = 20 mg/kg p.o. daily, 21 days of diet and treatment, group mean
[5] = 20 mg/kg p.o. daily, 21 days of diet and treatment, individual animals
[6] = 40 mg/kg p.o. (stopped after 4 administrations), 9 days of diet, group mean
[7] = 40 mg/kg p.o. (stopped after 4 administrations), 9 days of diet, individual animals
[8] = individual animals, vs vehicle mean, 20 mg/kg

CC(C)Cc1cc(-c2nc(-c3ccc(NS(=O)(=O)C(F)(F)F)cc3Cl)cs2)ccn1 [Compound 37, N-(3-chloro-4-(2-(2-isobutylpyridin-4-yl)thiazol-4-yl)phenyl)-1,1,1-trifluoromethanesulfonamide] was tested, and the cytotoxicity at 5 µM (HepG2 cells; HepG2, 72 h, 5 μM, 3 days, DMEM without FBS, read-out: Average Viability (% Inhibition, n = 3)) was 94%, the cytotoxicity at 20 µM (HepG2 cells; HepG2, 72 h, 20 μM, 3 days, DMEM without FBS, read-out: Average Viability (% Inhibition, n = 3)) was 95% and the pIC50 (HepG2 cells; HepG2, serum-free, read-out: IC50 for decreased viability of HepG2 cells) was 5.68. For the same compound, the “ALT (U/L)” value [1, 2] was 419.3 U/L, the “AST (U/L)” value [1, 2] was 449.4 U/L and the AST/ALT ratio [1, 2] was 1.2. The “ALT (U/L)” value [1, 3] was 382 U/L and 620 U/L and 346 U/L and 825 U/L and 267 U/L and 246 U/L and 255 U/L and 447 U/L and 435 U/L and 370 U/L, the “AST (U/L)” value [1, 3] was 350 U/L and 416 U/L and 710 U/L and 405 U/L and 286 U/L and 392 U/L and 481 U/L and 528 U/L and 477 U/L and the AST/ALT ratio [1, 3] was 0.92 and 1.20 and 0.86 and 1.52 and 1.16 and 1.54 and 1.08 and 1.21 and 1.29. For the same compound, the “ALT (U/L)” value [1, 4] was 403.5 U/L, the “AST (U/L)” value [1, 4] was 431.2 U/L and the AST/ALT ratio [1, 4] was 1.1. For the same compound, the “ALT (U/L)” value [1, 5] was 266 U/L and 587 U/L and 432 U/L and 413 U/L and 385 U/L and 338 U/L, the “AST (U/L)” value [1, 5] was 362 U/L and 467 U/L and 344 U/L and 615 U/L and 424 U/L and 375 U/L and the AST/ALT ratio [1, 5] was 1.36 and 0.80 (2×) and 1.49 and 1.10 and 1.11. For the same compound, the “ALT (U/L)” value [1, 6] was 7043.8 U/L, the “AST (U/L)” value [1, 6] was 2685.0 U/L and the AST/ALT ratio [1, 6] was 0.8. For the same compound, the “ALT (U/L)” value [1, 7] was 1095 U/L and 1160 U/L and 12560 U/L and 13360 U/L, the “AST (U/L)” value [1, 7] was 1165 U/L and 1555 U/L and 3900 U/L and 4120 U/L and the AST/ALT ratio [1, 7] was 1.1 and 1.3 and 0.3 (2×). For the same compound, the “mean AST and ALT” value ([1]; 40 mg/kg, 4 surviving animals, sacrifice on day 9) was over 2500 U/L, the “ALT and AST levels” value ([1]; 40 mg/kg, day 9) was “very high” and the “ALT (U/L) Mean” value ([1]; Table B7, 5 mg/kg) was 419.30 U/L. The “AST (U/L) Mean” value ([1]; Table B7, 5 mg/kg) was 449.44 U/L, the “ALT (U/L) Mean” value ([1]; Table B7, 20 mg/kg) was 403.50 U/L and the “AST (U/L) Mean” value ([1]; Table B7, 20 mg/kg) was 431.17 U/L. The “HMGCOA Dct” value (HMGCoA; individual animals, normalised to 18S, 20 mg/kg) was 12.8 and 12.14 and 13.78 and 12.65 and 13.57 and 12.83 and 13.03 and 12.86 and 14.49 and 14.63 and 12.37, the “HMGCOA 2^DDct” value (HMGCoA; [8]) was 1.34 and 2.12 and 0.68 and 1.49 and 0.79 and 1.31 and 1.14 and 1.28 and 0.41 and 0.38 and 1.8 and the “HMGCOA DDct” value (HMGCoA; [8]) was −0.42 and −1.08 and 0.56 and −0.57 and 0.35 and −0.39 and −0.19 and −0.36 and 1.27 and 1.41 and −0.85. For the same compound, the “HMGCoA (Ct)” value (HMGCoA; individual animals, 20 mg/kg) was 25.35 and 24.69 and 26.62 and 25.08 and 25.92 and 25.42 and 24.76 and 25.37 and 25.99 and 26.18 and 24.72, the “HMGCOA 2^DDct” value (HMGCoA; mean, n 11) was 1.16 and the “HMGCOA DDct” value (HMGCoA; mean, n 11) was −0.03. The “HMGCOA Dct” value (HMGCoA; mean, n 11) was 13.2 and the “HMGCoA (Ct)” value (HMGCoA; mean, n 11) was 25.5.
